ChEMBL document CHEMBL1134002, “N-Aminoindoline derivatives as inhibitors of 5-lipoxygenase” (Bioorg Med Chem Lett, 2001)

Assays:
[1] = molecular target: T1, Polyunsaturated fatty acid 5-lipoxygenase (Rattus norvegicus) (UniProt P12527); test: In vitro percent inhibition against 5-lipoxygenase in RBL-1 cells at 10 uM concentration; assay type: cell-based
T1 sequence (whole entry): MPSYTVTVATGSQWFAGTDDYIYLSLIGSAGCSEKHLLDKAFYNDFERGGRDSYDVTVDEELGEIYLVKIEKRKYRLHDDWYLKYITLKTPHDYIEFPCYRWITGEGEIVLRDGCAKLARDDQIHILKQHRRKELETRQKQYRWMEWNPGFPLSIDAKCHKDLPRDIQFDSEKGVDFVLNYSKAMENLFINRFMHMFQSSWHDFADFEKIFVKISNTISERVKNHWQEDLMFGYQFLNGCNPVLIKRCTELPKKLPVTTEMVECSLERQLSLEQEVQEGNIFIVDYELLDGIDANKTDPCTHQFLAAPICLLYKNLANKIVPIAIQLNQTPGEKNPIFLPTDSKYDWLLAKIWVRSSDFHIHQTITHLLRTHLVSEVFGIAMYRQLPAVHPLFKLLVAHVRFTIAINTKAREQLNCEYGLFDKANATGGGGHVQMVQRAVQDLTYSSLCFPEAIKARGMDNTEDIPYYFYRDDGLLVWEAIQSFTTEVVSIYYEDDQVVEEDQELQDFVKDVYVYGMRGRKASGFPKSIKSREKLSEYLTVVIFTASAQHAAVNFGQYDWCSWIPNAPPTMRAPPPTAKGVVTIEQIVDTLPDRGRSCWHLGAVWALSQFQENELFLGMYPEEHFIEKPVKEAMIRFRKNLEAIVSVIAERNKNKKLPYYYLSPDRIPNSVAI

[2] = molecular target: T1, Polyunsaturated fatty acid 5-lipoxygenase (Rattus norvegicus); test: In vitro percent inhibition against 5-lipoxygenase in RBL-1 cells at 1 uM concentration; assay type: cell-based
[3] = molecular target: T1, Polyunsaturated fatty acid 5-lipoxygenase (Rattus norvegicus); details: RBL-1; 10 uM
[4] = molecular target: T2, Polyunsaturated fatty acid 5-lipoxygenase (Rattus norvegicus, UniProt P12527); test: In vitro inhibitory concentration against 5-lipoxygenase in RBL-1 cells; assay type: cell-based
T2 sequence (P12527 whole entry): T1 sequence (whole entry)

Row | inhibition [1] | SMILES | other results
1 | 28% | CN(NC(=O)c1ccccc1)c1ccccc1 | –
2 | 20% | COc1ccc2c(c1)CCN2NC(=O)c1ccccc1 | –

Continued, compound first:

Row | SMILES | inhibition [1] | other results
3 | O=C(O)CCC/C=C/c1ccc(C(=O)NN2CCc3ccccc32)cc1 | 18% | –
4 | CN(NS(=O)(=O)c1ccccc1)c1ccccc1 | 53% | –
5 | O=C(NN1CCc2ccccc21)c1ccccc1 | 15% | –
6 | CCCCCCCCCCNC(=O)CCC/C=C/c1ccc(C(=O)NN2CCc3ccccc32)cc1 | – | inhibition [2]: 57%
7 | CC(Cc1ccc(O)c(O)c1)C(C)Cc1ccc(O)c(O)c1 (centres undefined) | – | inhibition [3]: 73%
8 | O=C(NN1CCc2cc(O)ccc21)c1ccccc1 | 80% | IC50 [4]: 3.47 µM
